Measurements: ChEMBL document CHEMBL4364295, “Discovery of a First-in-Class Receptor Interacting Protein 2 (RIP2) Kinase Specific Clinical Candidate, 2-((4-(Benzo[d]thiazol-5-ylamino)-6-(tert-butylsulfonyl)quinazolin-7-yl)oxy)ethyl Dihydrogen Phosphate, for the Treatment of Inflammatory Diseases” (J Med Chem, 2019)
pIC50: −log10 of the molar value. Values after ≈ are worked out from the molar mass of the structure shown. Each block holds one molecule with its values, some of them ahead of it.

Tests used:
[1] = Prodrug conversion in minipig hepatocytes assessed as dephosphorylation at 20 uM measured after 4 hrs; assay type: ADME, cell-based, Sus scrofa, Hepatocyte; conditions: pig
[2] = Ratio of brain to blood concentration in Han Wistar rat assessed as 2-((4-(Benzo[d]thiazol-5-ylamino)-6-(tert-butylsulfonyl)quinazolin-7-yl)oxy)ethanol level at 2 mg/kg, iv administered as infusion for 4 hrs; assay type: ADME, organism-based
[3] = AUC in Gottingen minipig assessed as 2-((4-(Benzo[d]thiazol-5-ylamino)-6-(tert-butylsulfonyl)quinazolin-7-yl)oxy)ethanol level at 1 mg/kg, po by LC/MS/MS analysis; assay type: ADME, organism-based, Sus scrofa; conditions: pig, in vivo
[4] = Terminal half life in Sprague-Dawley rat assessed as 2-((4-(Benzo[d]thiazol-5-ylamino)-6-(tert-butylsulfonyl)quinazolin-7-yl)oxy)ethanol level at 2 mg/kg, po or 1.1 mg/kg, iv by LC/MS/MS analysis; assay type: ADME, organism-based; conditions: in vivo
[5] = Volume of distribution at steady state in Beagle dog assessed as 2-((4-(Benzo[d]thiazol-5-ylamino)-6-(tert-butylsulfonyl)quinazolin-7-yl)oxy)ethanol level at 2 mg/kg, po or 0.9 mg/kg, iv by LC/MS/MS analysis; assay type: ADME, organism-based, Canis lupus familiaris; conditions: in vivo
[6] = Cmax in Beagle dog assessed as 2-((4-(Benzo[d]thiazol-5-ylamino)-6-(tert-butylsulfonyl)quinazolin-7-yl)oxy)ethanol level at 2 mg/kg, po by LC/MS/MS analysis; assay type: ADME, organism-based, Canis lupus familiaris; design: dose 2 mg/kg, route oral; conditions: in vivo
[7] = Prodrug conversion in mouse blood assessed as 2-((4-(Benzo[d]thiazol-5-ylamino)-6-(tert-butylsulfonyl)quinazolin-7-yl)oxy)ethanol formation at 0.25 to 145 mg/kg, po administered twice daily via gavage for 8 days; assay type: ADME, organism-based; conditions: in vivo, 192 h
Cytochrome P450 3A4 = Cytochrome P450 3A4 (Homo sapiens, UniProt P08684); assay: Inhibition of CYP3A4 (unknown origin); assay type: ADME
Sequence of Cytochrome P450 3A4 (P08684 whole entry): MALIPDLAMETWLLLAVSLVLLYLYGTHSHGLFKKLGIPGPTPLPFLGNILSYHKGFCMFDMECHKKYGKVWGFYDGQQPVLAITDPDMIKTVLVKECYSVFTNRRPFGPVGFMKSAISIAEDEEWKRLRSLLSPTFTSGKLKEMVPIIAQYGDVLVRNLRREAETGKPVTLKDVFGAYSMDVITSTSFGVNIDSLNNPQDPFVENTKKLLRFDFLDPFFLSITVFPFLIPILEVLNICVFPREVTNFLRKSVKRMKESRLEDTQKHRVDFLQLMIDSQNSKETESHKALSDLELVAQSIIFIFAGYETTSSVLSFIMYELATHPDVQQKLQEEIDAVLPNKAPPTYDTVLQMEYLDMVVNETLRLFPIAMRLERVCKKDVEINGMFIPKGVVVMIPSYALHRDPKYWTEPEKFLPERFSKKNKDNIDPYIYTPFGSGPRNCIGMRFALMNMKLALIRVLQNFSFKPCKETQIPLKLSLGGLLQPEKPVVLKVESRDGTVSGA

[8] = Prodrug conversion in human hepatocytes assessed as 2-(4-(benzo[d]thiazol-5-ylamino)-7-(2-hydroxyethoxy)quinazolin-6-ylsulfonyl)-2-methylpropan-1-ol formation at 20 uM measured after 4 hrs; assay type: ADME, cell-based, Hepatocyte
[9] = AUC in Sprague-Dawley rat assessed as 2-((4-(Benzo[d]thiazol-5-ylamino)-6-(tert-butylsulfonyl)quinazolin-7-yl)oxy)ethanol level at 2 mg/kg, po by LC/MS/MS analysis; assay type: ADME, organism-based; conditions: in vivo
[10] = Half life in dog blood; assay type: ADME, tissue-based, Canis lupus familiaris
Toll-like receptor 2 = Toll-like receptor 2 (Homo sapiens, UniProt O60603); assay: Inhibition of TLR2 in HEK293 cells assessed as reduction in Pam2CSK4-induced IL8 production; assay type: cell-based
Sequence of Toll-like receptor 2 (O60603 whole entry): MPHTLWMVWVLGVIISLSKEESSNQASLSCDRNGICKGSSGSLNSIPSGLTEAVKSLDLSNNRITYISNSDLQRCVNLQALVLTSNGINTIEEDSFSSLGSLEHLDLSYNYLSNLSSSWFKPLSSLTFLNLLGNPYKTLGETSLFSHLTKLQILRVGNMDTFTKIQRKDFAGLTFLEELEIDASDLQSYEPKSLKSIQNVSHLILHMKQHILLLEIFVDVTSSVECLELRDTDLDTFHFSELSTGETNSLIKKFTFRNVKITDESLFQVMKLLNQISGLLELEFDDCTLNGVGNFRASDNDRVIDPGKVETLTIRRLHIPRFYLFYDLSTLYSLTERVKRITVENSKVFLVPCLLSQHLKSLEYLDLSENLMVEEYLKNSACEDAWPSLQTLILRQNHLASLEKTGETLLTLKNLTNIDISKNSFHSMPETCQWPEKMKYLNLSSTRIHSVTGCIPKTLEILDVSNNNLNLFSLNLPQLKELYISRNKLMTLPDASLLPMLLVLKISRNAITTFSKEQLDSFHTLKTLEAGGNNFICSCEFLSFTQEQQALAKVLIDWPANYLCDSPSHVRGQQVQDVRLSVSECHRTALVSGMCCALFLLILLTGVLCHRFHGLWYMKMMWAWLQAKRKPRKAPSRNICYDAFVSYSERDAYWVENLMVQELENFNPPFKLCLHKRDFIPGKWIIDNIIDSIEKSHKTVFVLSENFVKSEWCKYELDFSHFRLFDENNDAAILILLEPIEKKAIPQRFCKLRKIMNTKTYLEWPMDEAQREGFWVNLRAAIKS

[11] = molecular target: Vascular endothelial growth factor receptor 3 (Homo sapiens) (UniProt P35916); assay: Inhibition of human VEGFR3 at 1 uM using poly[Glu:Tyr] (4:1) as substrate in presence of [gamma-33P]ATP relative to control
Sequence of Vascular endothelial growth factor receptor 3 (Homo sapiens) (P35916 whole entry): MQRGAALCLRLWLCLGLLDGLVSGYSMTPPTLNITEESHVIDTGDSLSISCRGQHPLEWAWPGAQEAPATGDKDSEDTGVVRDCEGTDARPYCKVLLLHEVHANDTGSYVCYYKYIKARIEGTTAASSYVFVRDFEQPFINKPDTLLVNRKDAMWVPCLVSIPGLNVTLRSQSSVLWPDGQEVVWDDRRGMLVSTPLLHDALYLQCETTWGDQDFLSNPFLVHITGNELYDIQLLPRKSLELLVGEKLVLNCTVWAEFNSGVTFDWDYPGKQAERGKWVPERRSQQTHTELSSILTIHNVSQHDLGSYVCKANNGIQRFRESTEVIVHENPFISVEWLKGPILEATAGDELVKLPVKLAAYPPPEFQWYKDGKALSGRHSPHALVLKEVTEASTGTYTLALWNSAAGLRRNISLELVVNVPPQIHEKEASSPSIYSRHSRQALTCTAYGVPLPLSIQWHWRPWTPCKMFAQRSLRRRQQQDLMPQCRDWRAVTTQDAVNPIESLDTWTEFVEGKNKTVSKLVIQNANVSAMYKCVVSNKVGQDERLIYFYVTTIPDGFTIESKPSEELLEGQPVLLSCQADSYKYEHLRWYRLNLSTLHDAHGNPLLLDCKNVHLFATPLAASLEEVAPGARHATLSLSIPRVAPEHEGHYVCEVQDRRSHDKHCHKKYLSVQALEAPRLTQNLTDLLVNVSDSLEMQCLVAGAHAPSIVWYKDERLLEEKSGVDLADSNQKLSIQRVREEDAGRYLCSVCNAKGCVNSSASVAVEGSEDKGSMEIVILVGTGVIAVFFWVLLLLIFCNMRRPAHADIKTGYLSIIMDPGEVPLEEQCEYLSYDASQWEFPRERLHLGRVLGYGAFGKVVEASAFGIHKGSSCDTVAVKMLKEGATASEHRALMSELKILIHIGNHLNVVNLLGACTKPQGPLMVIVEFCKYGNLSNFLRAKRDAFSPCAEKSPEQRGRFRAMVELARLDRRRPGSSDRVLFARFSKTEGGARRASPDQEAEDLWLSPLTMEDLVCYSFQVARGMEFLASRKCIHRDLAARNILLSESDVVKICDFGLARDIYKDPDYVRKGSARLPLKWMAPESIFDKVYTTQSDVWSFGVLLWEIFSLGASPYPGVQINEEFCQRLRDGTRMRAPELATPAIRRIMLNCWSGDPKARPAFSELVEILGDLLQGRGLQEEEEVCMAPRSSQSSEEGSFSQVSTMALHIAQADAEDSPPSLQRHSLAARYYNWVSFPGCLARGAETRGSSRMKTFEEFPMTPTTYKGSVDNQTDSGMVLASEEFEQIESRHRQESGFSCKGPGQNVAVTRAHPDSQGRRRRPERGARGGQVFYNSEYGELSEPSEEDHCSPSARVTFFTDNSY

[12] = Solubility of the compound in FaSSIF measured after 4 hrs; assay type: physicochemical
Intestinal mucosa = assay: Antiinflammatory activity in crohn's disease patient derived inflamed intestinal mucosa assessed as reduction in IL1beta production measured after overnight incubation by immunoassay; assay type: functional, tissue-based; conditions: Homo sapiens
Toll-like receptor 7 = molecular target: T1, Toll-like receptor 7 (Homo sapiens, UniProt Q9NYK1); assay: Inhibition of TLR7 in human monocytes assessed as reduction in gardiquimod-induced IL8 production; assay type: cell-based
T1 sequence (Q9NYK1 whole entry): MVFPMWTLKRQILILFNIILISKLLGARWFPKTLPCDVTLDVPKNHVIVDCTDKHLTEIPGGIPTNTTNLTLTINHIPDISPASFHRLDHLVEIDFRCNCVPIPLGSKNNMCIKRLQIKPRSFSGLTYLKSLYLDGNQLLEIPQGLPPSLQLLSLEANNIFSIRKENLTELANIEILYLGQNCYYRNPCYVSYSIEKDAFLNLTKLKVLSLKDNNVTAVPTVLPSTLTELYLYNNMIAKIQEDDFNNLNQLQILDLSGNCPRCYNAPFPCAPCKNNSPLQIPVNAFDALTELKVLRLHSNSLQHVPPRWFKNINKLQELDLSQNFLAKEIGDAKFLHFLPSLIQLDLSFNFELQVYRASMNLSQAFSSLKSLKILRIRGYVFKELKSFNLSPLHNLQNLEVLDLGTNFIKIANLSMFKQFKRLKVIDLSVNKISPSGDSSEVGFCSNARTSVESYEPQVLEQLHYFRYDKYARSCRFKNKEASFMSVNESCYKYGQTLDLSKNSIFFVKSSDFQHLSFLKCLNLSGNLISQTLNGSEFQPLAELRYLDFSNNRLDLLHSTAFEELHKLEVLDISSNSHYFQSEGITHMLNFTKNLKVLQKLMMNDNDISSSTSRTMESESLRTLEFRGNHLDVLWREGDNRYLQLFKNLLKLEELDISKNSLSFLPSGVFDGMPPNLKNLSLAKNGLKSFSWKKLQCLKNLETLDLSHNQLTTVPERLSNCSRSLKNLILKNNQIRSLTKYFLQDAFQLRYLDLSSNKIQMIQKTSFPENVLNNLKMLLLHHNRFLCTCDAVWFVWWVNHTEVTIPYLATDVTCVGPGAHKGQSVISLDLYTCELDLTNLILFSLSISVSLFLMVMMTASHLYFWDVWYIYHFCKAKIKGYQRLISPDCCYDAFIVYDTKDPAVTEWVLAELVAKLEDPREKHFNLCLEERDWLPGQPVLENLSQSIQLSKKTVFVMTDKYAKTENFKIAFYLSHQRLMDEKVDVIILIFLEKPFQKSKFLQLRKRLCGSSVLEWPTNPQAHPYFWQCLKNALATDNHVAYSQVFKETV

[13] = Passive permeability in MDCK cells; assay type: ADME, cell-based, Canis lupus familiaris; conditions: dog, read-out: permeability
[14] = molecular target: Receptor-interacting serine/threonine-protein kinase 2 (Homo sapiens, UniProt O43353); assay: Inhibition of RIPK2 in human whole blood assessed as reduction in MDP-induced TNFalpha production preincubated for 30 mins followed by MDP-stimulation and measured after 6 hrs by immunoassay; assay type: tissue-based
Sequence of Receptor-interacting serine/threonine-protein kinase 2 (O43353 whole entry): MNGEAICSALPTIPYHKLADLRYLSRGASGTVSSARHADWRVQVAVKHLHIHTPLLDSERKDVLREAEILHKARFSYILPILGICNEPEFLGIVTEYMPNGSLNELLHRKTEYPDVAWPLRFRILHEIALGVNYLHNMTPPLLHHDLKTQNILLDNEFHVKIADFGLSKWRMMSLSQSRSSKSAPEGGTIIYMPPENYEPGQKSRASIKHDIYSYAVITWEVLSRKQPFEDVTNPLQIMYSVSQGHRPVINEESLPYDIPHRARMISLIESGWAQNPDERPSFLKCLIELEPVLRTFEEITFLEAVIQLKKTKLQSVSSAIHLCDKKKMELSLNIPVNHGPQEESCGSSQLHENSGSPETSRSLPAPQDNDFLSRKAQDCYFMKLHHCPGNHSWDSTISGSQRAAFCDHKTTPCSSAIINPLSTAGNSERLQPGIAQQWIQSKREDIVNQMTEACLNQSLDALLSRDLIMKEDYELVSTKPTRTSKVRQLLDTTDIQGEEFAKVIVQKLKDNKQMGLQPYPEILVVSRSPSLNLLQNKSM

[15] = Oral bioavailability in Gottingen minipig at 1 mg/kg by LC/MS/MS analysis; assay type: ADME, organism-based, Sus scrofa; conditions: pig, in vivo
[16] = Terminal half life in Sprague-Dawley rat at 2 mg/kg, po or 0.5 mg/kg, iv by LC/MS/MS analysis; assay type: ADME, organism-based; conditions: in vivo, read-out: beta t1/2 (converted)
[17] = AUC in Beagle dog at 2 mg/kg, po by LC/MS/MS analysis; assay type: ADME, organism-based, Canis lupus familiaris; conditions: in vivo
[18] = Cmax in Beagle dog at 2 mg/kg, po by LC/MS/MS analysis; assay type: ADME, organism-based, Canis lupus familiaris; design: dose 2 mg/kg, route oral; conditions: in vivo
[19] = Oral bioavailability in Sprague-Dawley rat at 2 mg/kg by LC/MS/MS analysis; assay type: ADME, organism-based; conditions: in vivo
[20] = molecular target: Nucleotide-binding oligomerization domain-containing protein 2 (Homo sapiens, UniProt Q9HC29); assay: Inhibition of human NOD2 expressed in HEK293 cells assessed as reduction in MDP-induced IL8 production measured after 22 hrs by HTRF fluorescence assay; assay type: cell-based
Sequence of Nucleotide-binding oligomerization domain-containing protein 2 (Q9HC29 whole entry, the tested form may be a part): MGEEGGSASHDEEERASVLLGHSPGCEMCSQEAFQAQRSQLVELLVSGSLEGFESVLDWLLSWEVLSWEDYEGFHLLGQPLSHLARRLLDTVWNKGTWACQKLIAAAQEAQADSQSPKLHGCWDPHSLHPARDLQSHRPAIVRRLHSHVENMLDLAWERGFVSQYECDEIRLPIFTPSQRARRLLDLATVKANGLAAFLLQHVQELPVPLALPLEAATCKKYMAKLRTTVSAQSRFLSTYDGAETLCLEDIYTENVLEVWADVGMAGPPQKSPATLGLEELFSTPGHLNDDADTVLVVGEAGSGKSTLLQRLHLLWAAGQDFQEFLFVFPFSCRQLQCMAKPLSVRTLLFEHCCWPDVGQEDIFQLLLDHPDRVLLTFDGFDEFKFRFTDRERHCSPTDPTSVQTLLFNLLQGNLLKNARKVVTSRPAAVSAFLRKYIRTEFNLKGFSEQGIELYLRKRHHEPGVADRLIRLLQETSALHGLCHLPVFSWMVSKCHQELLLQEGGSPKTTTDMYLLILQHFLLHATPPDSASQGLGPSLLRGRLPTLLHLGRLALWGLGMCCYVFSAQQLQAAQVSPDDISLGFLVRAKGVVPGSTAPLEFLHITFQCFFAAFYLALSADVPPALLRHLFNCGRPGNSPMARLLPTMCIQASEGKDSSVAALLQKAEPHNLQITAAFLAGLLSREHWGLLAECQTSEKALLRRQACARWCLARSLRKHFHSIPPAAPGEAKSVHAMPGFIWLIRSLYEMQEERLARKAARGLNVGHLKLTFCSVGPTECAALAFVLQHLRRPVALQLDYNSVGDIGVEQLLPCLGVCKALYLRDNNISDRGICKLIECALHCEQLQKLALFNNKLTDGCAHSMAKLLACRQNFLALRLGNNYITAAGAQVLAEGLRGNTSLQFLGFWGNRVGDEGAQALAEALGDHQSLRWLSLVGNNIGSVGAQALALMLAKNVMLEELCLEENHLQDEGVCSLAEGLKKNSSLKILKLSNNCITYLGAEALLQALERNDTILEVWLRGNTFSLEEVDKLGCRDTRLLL

[21] = Terminal half life in Beagle dog at 2 mg/kg, po or 1.1 mg/kg, iv by LC/MS/MS analysis; assay type: ADME, organism-based, Canis lupus familiaris; conditions: in vivo, read-out: beta t1/2 (converted)

Drug metabolism [1]: Metabolite_Detected
Ratio [2]: 0.065
AUC [3]: 1100 ng·h/mL
beta t1/2 [4]: 2.4 h
Vdss [5]: 2 L/kg
Cmax [6]: 840 ng/mL
Drug metabolism [7]: Metabolite_Detected
pIC50 (Cytochrome P450 3A4): < 4.52
Drug metabolism [8]: Metabolite_Detected
AUC [9]: 560 ng·h/mL
half-life [10]: 0.35 h
SMILES: CC(C)(C)S(=O)(=O)c1cc2c(Nc3ccc4scnc4c3)ncnc2cc1OCCOP(=O)(O)O.[CaH2]

pIC50 (Toll-like receptor 2): < 5.00
inhibition [11]: > 90%
solubility at 4 h [12]: 4 µg/mL (≈ 8.72 µM)
pIC50 (Intestinal mucosa): 8.00
pIC50 (Toll-like receptor 7): < 5.00
Papp [13]: 16.6 ×10⁻⁶ cm/s
pIC50 [14]: 7.59
F [15]: 26%
half-life [16]: 4.4 h
AUC [17]: 1800 ng·h/mL
Cmax [18]: 470 ng/mL
bioavailability [19]: 39%
pIC50 [20]: 8.40
inhibition [20]: Dose-dependent effect
half-life [21]: 5.1 h
SMILES: CC(C)(C)S(=O)(=O)c1cc2c(Nc3ccc4scnc4c3)ncnc2cc1OCCO
Activity (Intestinal mucosa): Dose-dependent effect
